# Reference: ChEMBL document CHEMBL4011618, “Discovery of Potent, Selective Stem Cell Factor Receptor/Platelet Derived Growth Factor Receptor Alpha (c-KIT/PDGFRα) Dual Inhibitor for the Treatment of Imatinib-Resistant Gastrointestinal Stromal Tumors (GISTs)” (J Med Chem, 2017)
# What was measured:
# [1] = Cmax in Sprague-Dawley rat at 100 mg/kg, ip up to 24 hrs post dose by LC/MS/MS analysis; type: ADME, organism-based; design: dose 100 mg/kg, route intraperitoneal; details: in vivo
# [2] = system: Mast/stem cell growth factor receptor Kit (Homo sapiens), P10721 [C674S]
# Description: Inhibition of TEL-fused cKIT C674S mutant (unknown origin) expressed in mouse BAF3 cells assessed as cell growth inhibition after 72 hrs by cell titer-glo assay
# Mus musculus [3] = assay: Toxicity in nu/nu mouse allografted with mouse BAF3 cells harboring TEL-cKIT-T670I mutant assessed as change in body weight at 25 to 100 mg/kg, ip administered daily for 11 days relative to control; type: organism-based; details: in vivo, 264 h
# [4] = Tmax in Sprague-Dawley rat at 100 mg/kg, ip up to 24 hrs post dose by LC/MS/MS analysis; type: ADME, organism-based; details: in vivo
# [5] = Tmax in Sprague-Dawley rat at 25 mg/kg, ip up to 24 hrs post dose by LC/MS/MS analysis; type: ADME, organism-based; details: in vivo
# [6] = Half life in Sprague-Dawley rat at 100 mg/kg, ip up to 24 hrs post dose by LC/MS/MS analysis; type: ADME, organism-based; details: in vivo
# [7] = Half life in Sprague-Dawley rat at 2 mg/kg, iv up to 24 hrs post dose by LC/MS/MS analysis; type: ADME, organism-based; details: in vivo
# Mus musculus [8] = assay: Toxicity in nu/nu mouse xenografted with human GISTT1 cells assessed as mortality at 25 to 100 mg/kg, ip administered daily for 28 days measured during compound dosing; type: organism-based; details: in vivo, 672 h
# [9] = MRT (0 to t) in Sprague-Dawley rat at 25 mg/kg, ip up to 24 hrs post dose by LC/MS/MS analysis; type: ADME, organism-based; details: in vivo
# [10] = system: Mast/stem cell growth factor receptor Kit (Homo sapiens), P10721 [D816V]
# Description: Inhibition of TEL-fused cKIT D816V mutant (unknown origin) expressed in mouse BAF3 cells assessed as cell growth inhibition after 72 hrs by cell titer-glo assay
# [11] = Antiproliferative activity against CHL cells assessed as cell growth inhibition after 72 hrs by cell titer-glo assay; type: cell-based, Cricetulus griseus; details: chinese hamster
# [12] = AUC (0 to infinity) in Sprague-Dawley rat at 2 mg/kg, iv up to 24 hrs post dose by LC/MS/MS analysis; type: ADME, organism-based; design: dose 2 mg/kg, route intravenous, time infinity; details: in vivo
# [13] = target: Vascular endothelial growth factor receptor 1 (Homo sapiens, UniProt P17948); assay: Inhibition of human GST-tagged FLT1 (781 to 1338 residues) expressed in baculovirus by ELISA
# [14] = target: Mast/stem cell growth factor receptor Kit (Homo sapiens, UniProt P10721)
# Description: Inhibition of TEL-fused cKIT (unknown origin) expressed in mouse BAF3 cells assessed as cell growth inhibition after 72 hrs by cell titer-glo assay
# [15] = target: Platelet-derived growth factor receptor alpha (Homo sapiens, UniProt P16234)
# Description: Inhibition of TEL-fused PDGFRalpha (unknown origin) expressed in mouse BAF3 cells assessed as cell growth inhibition after 72 hrs by cell titer-glo assay
# [16] = system: Mast/stem cell growth factor receptor Kit (Homo sapiens), P10721 [V559D,T670I]
# BaF3 = assay: Antitumor activity against mouse BAF3 cells harboring TEL-cKIT-T670I mutant allografted in nu/nu mouse assessed as tumor growth inhibition at 100 mg/kg, ip administered daily for 11 days relative to control; type: functional; details: 264 h, read-out: TGI
# [17] = AUC (0 to t) in Sprague-Dawley rat at 100 mg/kg, ip up to 24 hrs post dose by LC/MS/MS analysis; type: ADME, organism-based; design: dose 100 mg/kg, time < 24 hr, route intraperitoneal; details: in vivo
# [18] = AUC (0 to t) in Sprague-Dawley rat at 25 mg/kg, ip up to 24 hrs post dose by LC/MS/MS analysis; type: ADME, organism-based; design: dose 25 mg/kg, time < 24 hr, route intraperitoneal; details: in vivo
# Mus musculus [19] = assay: Toxicity in nu/nu mouse xenografted with human GISTT1 cells assessed as body weight loss at 25 to 100 mg/kg, ip administered daily for 28 days measured during compound dosing; type: organism-based; details: in vivo, 672 h
# [20] = system: Mast/stem cell growth factor receptor Kit (Homo sapiens), P10721 [D816H]
# Description: Inhibition of TEL-fused cKIT D816H mutant (unknown origin) expressed in mouse BAF3 cells assessed as cell growth inhibition after 72 hrs by cell titer-glo assay
# [21] = system: Mast/stem cell growth factor receptor Kit (Homo sapiens), P10721 [V559D]
# [22] = Cmax in Sprague-Dawley rat at 25 mg/kg, ip up to 24 hrs post dose by LC/MS/MS analysis; type: ADME, organism-based; design: dose 25 mg/kg, route intraperitoneal; details: in vivo
# GISTT1 = assay: Antitumor activity against human GISTT1 cells xenografted in nu/nu mouse assessed as tumor growth inhibition at 25 mg/kg, ip administered daily for 28 days relative to control; type: functional; details: 672 h, read-out: TGI
# Chain of Mast/stem cell growth factor receptor Kit (Homo sapiens), P10721 [V559D,T670I] (P10721 whole entry V559D/T670I): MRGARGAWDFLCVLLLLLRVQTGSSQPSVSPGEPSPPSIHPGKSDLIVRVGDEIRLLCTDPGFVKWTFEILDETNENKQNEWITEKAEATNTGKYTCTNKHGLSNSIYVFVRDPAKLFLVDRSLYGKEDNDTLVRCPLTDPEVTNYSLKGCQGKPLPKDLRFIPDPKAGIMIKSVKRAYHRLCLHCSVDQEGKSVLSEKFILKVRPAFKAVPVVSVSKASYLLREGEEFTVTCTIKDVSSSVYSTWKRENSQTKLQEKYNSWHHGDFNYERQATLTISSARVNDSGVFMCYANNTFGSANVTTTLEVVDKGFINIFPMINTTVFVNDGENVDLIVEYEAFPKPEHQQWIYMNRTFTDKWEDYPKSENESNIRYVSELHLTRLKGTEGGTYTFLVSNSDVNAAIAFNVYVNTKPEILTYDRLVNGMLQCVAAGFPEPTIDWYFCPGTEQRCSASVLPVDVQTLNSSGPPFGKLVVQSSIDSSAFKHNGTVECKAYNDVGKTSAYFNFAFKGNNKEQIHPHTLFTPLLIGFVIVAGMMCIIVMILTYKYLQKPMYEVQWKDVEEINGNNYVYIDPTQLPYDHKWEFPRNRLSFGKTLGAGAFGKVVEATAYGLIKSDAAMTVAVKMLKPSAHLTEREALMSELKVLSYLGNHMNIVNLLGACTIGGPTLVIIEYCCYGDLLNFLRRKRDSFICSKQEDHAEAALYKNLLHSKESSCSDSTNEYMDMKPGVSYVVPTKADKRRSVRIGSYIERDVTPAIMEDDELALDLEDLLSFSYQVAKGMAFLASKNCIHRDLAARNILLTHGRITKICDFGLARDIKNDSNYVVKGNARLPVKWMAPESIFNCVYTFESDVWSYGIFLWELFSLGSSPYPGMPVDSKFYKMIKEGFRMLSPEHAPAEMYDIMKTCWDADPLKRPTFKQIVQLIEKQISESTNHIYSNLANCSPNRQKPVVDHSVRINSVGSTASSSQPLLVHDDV
# Chain of Platelet-derived growth factor receptor alpha (P16234 whole entry): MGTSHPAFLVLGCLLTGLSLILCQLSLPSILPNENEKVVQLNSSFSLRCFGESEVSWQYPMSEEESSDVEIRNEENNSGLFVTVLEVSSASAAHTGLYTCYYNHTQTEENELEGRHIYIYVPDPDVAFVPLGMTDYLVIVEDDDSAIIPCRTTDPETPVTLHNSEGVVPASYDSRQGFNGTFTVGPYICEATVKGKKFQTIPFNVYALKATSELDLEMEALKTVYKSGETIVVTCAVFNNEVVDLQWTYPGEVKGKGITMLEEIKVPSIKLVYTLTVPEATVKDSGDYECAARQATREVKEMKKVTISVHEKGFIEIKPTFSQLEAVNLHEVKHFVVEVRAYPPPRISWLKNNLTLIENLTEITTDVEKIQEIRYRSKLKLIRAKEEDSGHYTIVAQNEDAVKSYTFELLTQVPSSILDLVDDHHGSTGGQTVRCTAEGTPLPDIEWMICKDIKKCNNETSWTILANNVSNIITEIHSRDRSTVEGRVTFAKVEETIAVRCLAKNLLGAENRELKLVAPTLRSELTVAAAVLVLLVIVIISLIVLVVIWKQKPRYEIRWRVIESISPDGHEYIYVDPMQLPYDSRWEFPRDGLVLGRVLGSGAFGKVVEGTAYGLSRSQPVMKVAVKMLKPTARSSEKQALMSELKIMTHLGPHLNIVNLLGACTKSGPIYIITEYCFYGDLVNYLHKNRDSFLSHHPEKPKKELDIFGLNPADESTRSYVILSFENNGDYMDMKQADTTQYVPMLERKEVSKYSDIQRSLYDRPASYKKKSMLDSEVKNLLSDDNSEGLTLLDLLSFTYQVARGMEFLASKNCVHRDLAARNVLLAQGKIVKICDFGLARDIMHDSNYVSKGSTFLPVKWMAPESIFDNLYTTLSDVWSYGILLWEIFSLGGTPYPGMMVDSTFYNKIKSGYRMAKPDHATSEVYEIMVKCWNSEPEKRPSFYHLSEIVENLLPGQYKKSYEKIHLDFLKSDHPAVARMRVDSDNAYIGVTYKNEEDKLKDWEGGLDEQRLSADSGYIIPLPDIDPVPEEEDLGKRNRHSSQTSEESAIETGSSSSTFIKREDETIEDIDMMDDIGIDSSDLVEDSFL
# Chain of Mast/stem cell growth factor receptor Kit (Homo sapiens), P10721 [C674S] (P10721 whole entry C674S): as the sequence (P10721 whole entry V559D/T670I) above, with D559V, I670T, C674S counted along it
# Chain of Mast/stem cell growth factor receptor Kit (Homo sapiens), P10721 [D816H] (P10721 whole entry D816H): as the sequence (P10721 whole entry V559D/T670I) above, with D559V, I670T, D816H counted along it
# Chain of Vascular endothelial growth factor receptor 1 (P17948 whole entry, the tested form may be a part): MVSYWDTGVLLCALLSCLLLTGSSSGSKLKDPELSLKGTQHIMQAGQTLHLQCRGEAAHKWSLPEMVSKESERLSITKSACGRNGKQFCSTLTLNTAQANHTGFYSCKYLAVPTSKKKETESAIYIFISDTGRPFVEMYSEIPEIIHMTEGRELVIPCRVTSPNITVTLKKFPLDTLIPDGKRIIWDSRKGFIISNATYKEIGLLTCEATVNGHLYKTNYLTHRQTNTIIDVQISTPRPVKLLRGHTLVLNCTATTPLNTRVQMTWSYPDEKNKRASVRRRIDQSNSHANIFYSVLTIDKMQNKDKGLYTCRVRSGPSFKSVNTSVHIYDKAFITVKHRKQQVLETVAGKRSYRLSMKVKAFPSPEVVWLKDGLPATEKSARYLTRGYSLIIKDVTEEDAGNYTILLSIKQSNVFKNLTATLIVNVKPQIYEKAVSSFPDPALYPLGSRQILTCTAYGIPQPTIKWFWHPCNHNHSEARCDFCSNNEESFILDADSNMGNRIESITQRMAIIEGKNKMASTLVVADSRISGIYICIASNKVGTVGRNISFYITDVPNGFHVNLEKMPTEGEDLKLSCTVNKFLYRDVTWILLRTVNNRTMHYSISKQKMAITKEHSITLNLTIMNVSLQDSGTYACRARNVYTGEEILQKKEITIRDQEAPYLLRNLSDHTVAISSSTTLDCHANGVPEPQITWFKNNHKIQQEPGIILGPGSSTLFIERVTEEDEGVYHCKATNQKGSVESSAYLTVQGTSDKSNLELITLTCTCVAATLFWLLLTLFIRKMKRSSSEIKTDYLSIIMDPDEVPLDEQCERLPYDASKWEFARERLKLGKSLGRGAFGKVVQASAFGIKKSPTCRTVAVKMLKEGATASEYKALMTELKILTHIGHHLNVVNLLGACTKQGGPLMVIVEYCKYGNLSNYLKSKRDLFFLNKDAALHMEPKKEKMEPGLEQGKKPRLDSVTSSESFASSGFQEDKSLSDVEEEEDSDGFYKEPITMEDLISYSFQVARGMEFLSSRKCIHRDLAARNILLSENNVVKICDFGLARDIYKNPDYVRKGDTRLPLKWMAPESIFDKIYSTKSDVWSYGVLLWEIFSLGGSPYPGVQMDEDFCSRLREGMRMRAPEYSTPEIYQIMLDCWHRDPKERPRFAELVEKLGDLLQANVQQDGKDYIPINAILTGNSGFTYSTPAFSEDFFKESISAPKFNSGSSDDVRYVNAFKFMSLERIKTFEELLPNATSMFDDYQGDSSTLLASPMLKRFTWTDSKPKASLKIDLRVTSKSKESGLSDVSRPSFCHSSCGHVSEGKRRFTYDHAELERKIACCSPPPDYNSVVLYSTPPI
# Chain of Mast/stem cell growth factor receptor Kit (Homo sapiens), P10721 [V559D] (P10721 whole entry V559D): as the sequence (P10721 whole entry V559D/T670I) above, with I670T counted along it
# Chain of Mast/stem cell growth factor receptor Kit (P10721 whole entry): as the sequence (P10721 whole entry V559D/T670I) above, with D559V, I670T counted along it
# Chain of Mast/stem cell growth factor receptor Kit (Homo sapiens), P10721 [D816V] (P10721 whole entry D816V): as the sequence (P10721 whole entry V559D/T670I) above, with D559V, I670T, D816V counted along it
compound,measurement,setting,value
Cc1cc(NC(=O)Nc2ccc(-c3ccnc4[nH]nc(C)c34)cc2)ccc1N1CCOCC1,Cmax,[1],656 ng/mL
same,GI50,[2],10.5 nM
same,Activity,Mus musculus [3],Non-Toxic
same,Tmax,[4],4 h
same,Tmax,[5],4 h
same,half-life,[6],658 min
same,half-life,[7],41.4 min
same,Activity,Mus musculus [8],Non-Toxic
same,MRT last at 24 h,[9],5.67 h
same,GI50,[10],> 10 µM
same,GI50 at 72 h,[11],7.04 µM
same,AUC(0-inf),[12],2250 ng·h/mL
same,IC50,[13],159 nM
same,GI50,[14],18.1 nM
same,GI50,[15],10.4 nM
same,GI50,[16],36.4 nM
same,inhibition in vivo at 100 mg/kg,BaF3,41.9%
same,AUC(0-t) at 24 h,[17],4250 ng·h/mL
same,AUC(0-t) at 24 h,[18],691 ng·h/mL
same,Activity,Mus musculus [19],Non-Toxic
same,GI50,[20],134 nM
same,GI50,[21],96.5 nM
same,Cmax,[22],117 ng/mL
same,inhibition in vivo at 25 mg/kg,GISTT1,20.2%
